Values quoted from earlier work, collected in publication PMC8513935.

Assays:
[1] = derived by the authors as gas->solvent minus gas->water (a hypothetical dry solvent; the ESI), not a two-phase measurement
[2] = log P octanol/water from commercial databases, averaged (the ESI); conditions: Octanol (wet), 25 C
[3] = experimental, compiled by the authors from the literature (the ESI cites the sources)

## C1CCOC1
[1]; 1,2-Dichloroethane, 25 C
  log K of transfer, water to solvent: 0.76 log10 K
[1]; Acetone, 25 C
  log K of transfer, water to solvent: 0.46 log10 K
[1]; CCl4, 25 C
  log K of transfer, water to solvent: 0.57 log10 K
[1]; Chlorobenzene, 25 C
  log K of transfer, water to solvent: 0.41 log10 K
[1]; Chloroform, 25 C
  log K of transfer, water to solvent: 1.3 log10 K
[1]; Di-n-butyl ether, 25 C
  log K of transfer, water to solvent: 0.23 log10 K
[1]; Hexadecane, 25 C
  log K of transfer, water to solvent: 0.076 log10 K
[1]; Hexane, 25 C
  log K of transfer, water to solvent: 0.14 log10 K
[1]; Methanol, 25 C
  log K of transfer, water to solvent: 0.69 log10 K
[1]; Octan-1-ol(dry), 25 C
  log K of transfer, water to solvent: 0.3 log10 K
[1]; Propan-1-ol, 25 C
  log K of transfer, water to solvent: 0.34 log10 K
[1]; Propan-2-ol, 25 C
  log K of transfer, water to solvent: 0.33 log10 K
[1]; Tetrahydrofuran, 25 C
  log K of transfer, water to solvent: 0.58 log10 K
[2]
  log K of transfer, water to solvent: 0.46 log10 K
[3]; 1,2-Dichloroethane, 25 C
  log K of transfer, gas to solvent: 3.32 log10 K
[3]; CCl4, 25 C
  log K of transfer, gas to solvent: 3.13 log10 K
[3]; Chlorobenzene, 25 C
  log K of transfer, gas to solvent: 2.97 log10 K
[3]; Chloroform, 25 C
  log K of transfer, gas to solvent: 3.86 log10 K
[3]; Di-n-butyl ether, 25 C
  log K of transfer, gas to solvent: 2.79 log10 K
[3]; Hexadecane, 25 C
  log K of transfer, gas to solvent: 2.63 log10 K
[3]; Hexane, 25 C
  log K of transfer, gas to solvent: 2.7 log10 K
[3]; Methanol, 25 C
  log K of transfer, gas to solvent: 3.25 log10 K
[3]; Octan-1-ol, 25 C
  log K of transfer, gas to solvent: 2.86 log10 K
[3]; Propan-1-ol, 25 C
  log K of transfer, gas to solvent: 2.9 log10 K
[3]; Propan-2-ol, 25 C
  log K of transfer, gas to solvent: 2.89 log10 K
[3]; Propanone, 25 C
  log K of transfer, gas to solvent: 3.02 log10 K
[3]; Tetrahydrofuran, 25 C
  log K of transfer, gas to solvent: 3.14 log10 K
[3]; Water, 25 C
  log K of transfer, gas to solvent: 2.56 log10 K

## C=C
[1]; 1,2-Dichloroethane, 25 C
  log K of transfer, water to solvent: 1.3 log10 K
[1]; 2-Methylpropan-1-ol, 25 C
  log K of transfer, water to solvent: 1.28 log10 K
[1]; 2-Methylpropan-2-ol, 25 C
  log K of transfer, water to solvent: 1.3 log10 K
[1]; Acetone, 25 C
  log K of transfer, water to solvent: 1.5 log10 K
[1]; Butan-1-ol, 25 C
  log K of transfer, water to solvent: 1.28 log10 K
[1]; Butan-2-ol, 25 C
  log K of transfer, water to solvent: 1.26 log10 K
[1]; CCl4, 25 C
  log K of transfer, water to solvent: 1.51 log10 K
[1]; Chlorobenzene, 25 C
  log K of transfer, water to solvent: 1.39 log10 K
[1]; Cyclohexanone, 25 C
  log K of transfer, water to solvent: 1.34 log10 K
[1]; Ethanol, 25 C
  log K of transfer, water to solvent: 1.35 log10 K
[1]; Heptan-1-ol, 25 C
  log K of transfer, water to solvent: 1.25 log10 K
[1]; Hexadecane, 25 C
  log K of transfer, water to solvent: 1.23 log10 K
[1]; Hexan-1-ol, 25 C
  log K of transfer, water to solvent: 1.26 log10 K
[1]; Hexane, 25 C
  log K of transfer, water to solvent: 1.41 log10 K
[1]; Methanol, 25 C
  log K of transfer, water to solvent: 1.35 log10 K
[1]; Octan-1-ol(dry), 25 C
  log K of transfer, water to solvent: 1.22 log10 K
[1]; Pentan-1-ol, 25 C
  log K of transfer, water to solvent: 1.29 log10 K
[1]; Propan-1-ol, 25 C
  log K of transfer, water to solvent: 1.32 log10 K
[1]; Propan-2-ol, 25 C
  log K of transfer, water to solvent: 1.27 log10 K
[1]; Tetrahydrofuran, 25 C
  log K of transfer, water to solvent: 1.54 log10 K
[2]
  log K of transfer, water to solvent: 1.13 log10 K
[3]; 1,2-Dichloroethane, 25 C
  log K of transfer, gas to solvent: 0.36 log10 K
[3]; 2-Methylpropan-1-ol, 25 C
  log K of transfer, gas to solvent: 0.34 log10 K
[3]; 2-Methylpropan-2-ol, 25 C
  log K of transfer, gas to solvent: 0.36 log10 K
[3]; Butan-1-ol, 25 C
  log K of transfer, gas to solvent: 0.34 log10 K
[3]; Butan-2-ol, 25 C
  log K of transfer, gas to solvent: 0.32 log10 K
[3]; CCl4, 25 C
  log K of transfer, gas to solvent: 0.57 log10 K
[3]; Chlorobenzene, 25 C
  log K of transfer, gas to solvent: 0.45 log10 K
[3]; Cyclohexanone, 25 C
  log K of transfer, gas to solvent: 0.401 log10 K
[3]; Ethanol, 25 C
  log K of transfer, gas to solvent: 0.41 log10 K
[3]; Heptan-1-ol, 25 C
  log K of transfer, gas to solvent: 0.312 log10 K
[3]; Hexadecane, 25 C
  log K of transfer, gas to solvent: 0.289 log10 K
[3]; Hexan-1-ol, 25 C
  log K of transfer, gas to solvent: 0.318 log10 K
[3]; Hexane, 25 C
  log K of transfer, gas to solvent: 0.471 log10 K
[3]; Methanol, 25 C
  log K of transfer, gas to solvent: 0.41 log10 K
[3]; Octan-1-ol, 25 C
  log K of transfer, gas to solvent: 0.28 log10 K
[3]; Pentan-1-ol, 25 C
  log K of transfer, gas to solvent: 0.35 log10 K
[3]; Propan-1-ol, 25 C
  log K of transfer, gas to solvent: 0.38 log10 K
[3]; Propan-2-ol, 25 C
  log K of transfer, gas to solvent: 0.33 log10 K
[3]; Propanone, 25 C
  log K of transfer, gas to solvent: 0.56 log10 K
[3]; Tetrahydrofuran, 25 C
  log K of transfer, gas to solvent: 0.6 log10 K
[3]; Water, 25 C
  log K of transfer, gas to solvent: -0.94 log10 K

## CCCC(=O)CCC
[1]; Di-n-butyl ether, 25 C
  log K of transfer, water to solvent: 1.87 log10 K
[1]; Hexadecane, 25 C
  log K of transfer, water to solvent: 1.45 log10 K
[1]; Methanol, 25 C
  log K of transfer, water to solvent: 1.98 log10 K
[2]
  log K of transfer, water to solvent: 2.04 log10 K
[3]; Di-n-butyl ether, 25 C
  log K of transfer, gas to solvent: 4.12 log10 K
[3]; Hexadecane, 25 C
  log K of transfer, gas to solvent: 3.7 log10 K
[3]; Methanol, 25 C
  log K of transfer, gas to solvent: 4.23 log10 K
[3]; Water, 25 C
  log K of transfer, gas to solvent: 2.25 log10 K
